Source: patent US20160326142A1, “PYRAZOLE CARBOXAMIDE COMPOUNDS, COMPOSITIONS AND METHODS OF USE” (Genentech, Inc., priority 2012, published 2016)

Biological target: T1, ITK (Homo sapiens, UniProt Q08881)
T1 construct: purchased Invitrogen PV3875
T1 sequence (Q08881 1-620): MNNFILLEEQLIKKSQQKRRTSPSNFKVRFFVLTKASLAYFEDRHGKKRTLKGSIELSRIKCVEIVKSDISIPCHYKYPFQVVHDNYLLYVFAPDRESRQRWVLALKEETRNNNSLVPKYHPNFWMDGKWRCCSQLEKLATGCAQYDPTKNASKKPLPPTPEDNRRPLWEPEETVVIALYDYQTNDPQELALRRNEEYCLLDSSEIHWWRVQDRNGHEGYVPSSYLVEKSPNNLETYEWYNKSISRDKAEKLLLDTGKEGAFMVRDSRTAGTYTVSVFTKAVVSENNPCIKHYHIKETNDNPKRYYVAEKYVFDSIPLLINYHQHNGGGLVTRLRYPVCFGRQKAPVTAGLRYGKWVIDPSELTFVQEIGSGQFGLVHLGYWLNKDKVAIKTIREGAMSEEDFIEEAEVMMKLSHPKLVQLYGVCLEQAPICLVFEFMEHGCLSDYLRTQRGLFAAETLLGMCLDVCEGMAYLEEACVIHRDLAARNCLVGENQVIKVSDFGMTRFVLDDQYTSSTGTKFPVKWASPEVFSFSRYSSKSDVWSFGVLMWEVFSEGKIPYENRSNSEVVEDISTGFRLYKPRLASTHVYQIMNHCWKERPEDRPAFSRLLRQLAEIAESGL
Experiment: ITK enzyme assay (Caliper or LCMS peptide phosphorylation)
Format: biochemical
Details: purified ITK (Invitrogen PV3875), 20 μM ATP, Ki by Morrison's quadratic equation
How it was run: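 Purified human ITK peptide phosphorylation, quenched with EDTA (50 mM final) for Caliper LabChip separation or TCA (5% v/v final) for UPLC-MS/MS MRM quantification. Ki derived via Morrison tight-binding equation, corrected for competitive inhibition using ATP concentration relative to Km,app.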

Structure (SMILES) | Ki [nM]
CC1(C)CCc2c(C(=O)Nc3cnn(C(c4ccccc4)C4CNCCS4(=O)=O)c3)n[nH]c2C1 (single isomer, unassigned) [Example 127b] | 6
CN1CC(C(c2ccccc2)n2cc(NC(=O)c3n[nH]c4c3CCC(C)(C)C4)cn2)CN(C)C1=O (single isomer, unassigned) [Example 129b, N-(1-((1,3-dimethyl-2-oxohexahydropyrimidin-5-yl)(phenyl)methyl)-1H-pyrazol-4-yl)-6,6-di methyl-4,5,6,7-tetrahydro-1H-indazole-3-carboxamide] | 6
C#CC1(C)CCc2c(C(=O)Nc3cnn(Cc4ccccc4)c3)n[nH]c2C1 (single isomer, unassigned) [Example 130a, N-(1-benzyl-1H-pyrazol-4-yl)-6-ethynyl-6-methyl-4,5,6,7-tetrahydro-1H-indazole-3-carboxamide] | 25
CN1CCN(CC(c2ccccc2)n2cc(NC(=O)c3n[nH]c4c3CCC(C)(C)C4)cn2)C1=O (single isomer, unassigned) [Example 131b, 6,6-dimethyl-N-(1-(2-(3-methyl-2-oxoimidazolidin-1-yl)-1-phenylethyl)-1H-pyrazol-4-yl)-4,5,6,7-tetrahydro-1H-indazole-3-carboxamide] | 11
CC1(C)CCc2c(C(=O)Nc3cnn(C4COCC4c4ccccc4)c3)n[nH]c2C1 (single isomer, unassigned) [Example 132a, 6,6-dimethyl-N-(1-(4-phenyltetrahydrofuran-3-yl)-1H-pyrazol-4-yl)-4,5,6,7-tetrahydro-1H-indazole-3-carboxamide] | 77
CC1(C)CCc2c(C(=O)Nc3cnn(C4COCC4c4ccccc4)c3)n[nH]c2C1 (single isomer, unassigned) [Example 132b, 6,6-dimethyl-N-(1-(4-phenyltetrahydrofuran-3-yl)-1H-pyrazol-4-yl)-4,5,6,7-tetrahydro-1H-indazole-3-carboxamide] | 10
CC1(C)CCc2c(C(=O)Nc3cnn([C@@H]4COC[C@H]4c4ccccc4)c3)n[nH]c2C1 (single isomer, unassigned) [Example 135a, 6,6-dimethyl-N-(1-(4-phenyltetrahydrofuran-3-yl)-1H-pyrazol-4-yl)-4,5,6,7-tetrahydro-1H-indazole-3-carboxamide] | 130
CC1(C)CCc2c(C(=O)Nc3cnn([C@@H]4COC[C@H]4c4ccccc4)c3)n[nH]c2C1 (single isomer, unassigned) [Example 135b, 6,6-dimethyl-N-(1-(4-phenyltetrahydrofuran-3-yl)-1H-pyrazol-4-yl)-4,5,6,7-tetrahydro-1H-indazole-3-carboxamide] | 14
CC1CC(C(c2ccccc2)n2cc(NC(=O)c3n[nH]c4c3CCC(C)(C)C4)cn2)CCS1(=O)=O (single isomer, unassigned) [Example 139c, 6,6-dimethyl-N-(1-((2-methyl-1,1-dioxidotetrahydro-2H-thiopyran-4-yl)(phenyl)methyl)-1H-pyrazol-4-yl)-4,5,6,7-tetrahydro-1H-indazole-3-carboxamide] | 12
CC1CC(C(c2ccccc2)n2cc(NC(=O)c3n[nH]c4c3CCC(C)(C)C4)cn2)CCS1(=O)=O (single isomer, unassigned) [Example 139d, 6,6-dimethyl-N-(1-((2-methyl-1,1-dioxidotetrahydro-2H-thiopyran-4-yl)(phenyl)methyl)-1H-pyrazol-4-yl)-4,5,6,7-tetrahydro-1H-indazole-3-carboxamide] | 12
CC1CC(C(c2ccccc2)n2cc(NC(=O)c3n[nH]c4c3CCC(C)(C)C4)cn2)CCS1(=O)=O (single isomer, unassigned) [Example 139g, 6,6-dimethyl-N-(1-((2-methyl-1,1-dioxidotetrahydro-2H-thiopyran-4-yl)(phenyl)methyl)-1H-pyrazol-4-yl)-4,5,6,7-tetrahydro-1H-indazole-3-carboxamide] | 8

Stronger by Ki, values ahead:

Ki [nM] | Structure (SMILES)
4 | CC1(C)CCc2c(C(=O)Nc3cnn(C(c4cccc(S(C)(=O)=O)c4)C4CCOC4)c3)n[nH]c2C1 (single isomer, unassigned) [Example 126c, 6,6-dimethyl-N-(1-((3-(methylsulfonyl)phenyl)(tetrahydrofuran-3-yl)methyl)-1H-pyrazol-4-yl)-4,5,6,7-tetrahydro-1H-indazole-3-carboxamide]
2 | CC1(C)CCc2c(C(=O)Nc3cnn(C(c4cccc(S(C)(=O)=O)c4)C4CCOC4)c3)n[nH]c2C1 (single isomer, unassigned) [Example 126a, 6,6-dimethyl-N-(1-((3-(methylsulfonyl)phenyl)(tetrahydrofuran-3-yl)methyl)-1H-pyrazol-4-yl)-4,5,6,7-tetrahydro-1H-indazole-3-carboxamide]
2 | C#CC1(C)CCc2c(C(=O)Nc3cnn(Cc4ccccc4)c3)n[nH]c2C1 (single isomer, unassigned) [Example 130b, N-(1-benzyl-1H-pyrazol-4-yl)-6-ethynyl-6-methyl-4,5,6,7-tetrahydro-1H-indazole-3-carboxamide]
2 | CC1(C)CCc2c(C(=O)Nc3cnn(C(c4ccnc(N)c4)C4CCOCC4)c3)n[nH]c2C1 (single isomer, unassigned) [Example 133b, N-(1-((2-aminopyridin-4-yl)(tetrahydro-2H-pyran-4-yl)methyl)-1H-pyrazol-4-yl)-6,6-dimethyl-4,5,6,7-tetrahydro-1H-indazole-3-carboxamide]
1 | CN1CCN(CC(c2ccccc2)n2cc(NC(=O)c3n[nH]c4c3CCC(C)(C)C4)cn2)C1=O (single isomer, unassigned) [Example 131a, 6,6-dimethyl-N-(1-(2-(3-methyl-2-oxoimidazolidin-1-yl)-1-phenylethyl)-1H-pyrazol-4-yl)-4,5,6,7-tetrahydro-1H-indazole-3-carboxamide]
1 | CC1CC(C(c2ccccc2)n2cc(NC(=O)c3n[nH]c4c3CCC(C)(C)C4)cn2)CCS1(=O)=O (single isomer, unassigned) [Example 139a, 6,6-dimethyl-N-(1-((2-methyl-1,1-dioxidotetrahydro-2H-thiopyran-4-yl)(phenyl)methyl)-1H-pyrazol-4-yl)-4,5,6,7-tetrahydro-1H-indazole-3-carboxamide]
1 | CC1CC(C(c2ccccc2)n2cc(NC(=O)c3n[nH]c4c3CCC(C)(C)C4)cn2)CCS1(=O)=O (single isomer, unassigned) [Example 139e, 6,6-dimethyl-N-(1-((2-methyl-1,1-dioxidotetrahydro-2H-thiopyran-4-yl)(phenyl)methyl)-1H-pyrazol-4-yl)-4,5,6,7-tetrahydro-1H-indazole-3-carboxamide]
0.7 | CN1CC(C(c2ccccc2)n2cc(NC(=O)c3n[nH]c4c3CCC(C)(C)C4)cn2)CN(C)C1=O (single isomer, unassigned) [Example 129a, N-(1-((1,3-dimethyl-2-oxohexahydropyrimidin-5-yl)(phenyl)methyl)-1H-pyrazol-4-yl)-6,6-di methyl-4,5,6,7-tetrahydro-1H-indazole-3-carboxamide]
0.7 | CC1CC(C(c2ccccc2)n2cc(NC(=O)c3n[nH]c4c3CCC(C)(C)C4)cn2)CCS1(=O)=O (single isomer, unassigned) [Example 139b, 6,6-dimethyl-N-(1-((2-methyl-1,1-dioxidotetrahydro-2H-thiopyran-4-yl)(phenyl)methyl)-1H-pyrazol-4-yl)-4,5,6,7-tetrahydro-1H-indazole-3-carboxamide]
0.6 | CC1CC(C(c2ccccc2)n2cc(NC(=O)c3n[nH]c4c3CCC(C)(C)C4)cn2)CCS1(=O)=O (single isomer, unassigned) [Example 139f, 6,6-dimethyl-N-(1-((2-methyl-1,1-dioxidotetrahydro-2H-thiopyran-4-yl)(phenyl)methyl)-1H-pyrazol-4-yl)-4,5,6,7-tetrahydro-1H-indazole-3-carboxamide]
0.4 | CC1(C)CCc2c(C(=O)Nc3cnn(C(c4ccnc(N)c4)C4CCOCC4)c3)n[nH]c2C1 (single isomer, unassigned) [Example 133a, N-(1-((2-aminopyridin-4-yl)(tetrahydro-2H-pyran-4-yl)methyl)-1H-pyrazol-4-yl)-6,6-dimethyl-4,5,6,7-tetrahydro-1H-indazole-3-carboxamide]
0.2 | CC1(C)CCc2c(C(=O)Nc3cnn(C(c4cccc(S(C)(=O)=O)c4)C4CCOC4)c3)n[nH]c2C1 (single isomer, unassigned) [Example 126d, 6,6-dimethyl-N-(1-((3-(methylsulfonyl)phenyl)(tetrahydrofuran-3-yl)methyl)-1H-pyrazol-4-yl)-4,5,6,7-tetrahydro-1H-indazole-3-carboxamide]
0.2 | CC1(C)CCc2c(C(=O)Nc3cnn(C(c4ccccc4)C4CNCCS4(=O)=O)c3)n[nH]c2C1 (single isomer, unassigned) [Example 127a]
0.1 | CC1(C)CCc2c(C(=O)Nc3cnn(C(c4cccc(S(C)(=O)=O)c4)C4CCOC4)c3)n[nH]c2C1 (single isomer, unassigned) [Example 126b, 6,6-dimethyl-N-(1-((3-(methylsulfonyl)phenyl)(tetrahydrofuran-3-yl)methyl)-1H-pyrazol-4-yl)-4,5,6,7-tetrahydro-1H-indazole-3-carboxamide]
